# According to patent EP3394070B1, “CRYSTALLINE FORMS OF QUINOLONE ANALOGS AND THEIR SALTS” (Senhwa Biosciences, Inc., priority 2015, dated 2017):
# Counter-ions that a name gives are not always drawn.
# Tests used:
# [1] = water, 72 h
# [2] = Stability (HPLC purity) of acid salts in water, stirred at 42 °C for 3 days; format: physicochemical; conditions: for Purity % a/a after 3 days (HPLC): in water, stirred at 42 °C for 3 days
# Description: (§1) Crystalline forms (i.e., salts and free base) of the present invention were analyzed by total area normalization (TAN).
# The mixture was stirred at 42 °C for 3 days and each solution was analyzed by HPLC for concentration and purity. Table 11 Solubility and Purity of Acid Addition Salts
# [3] = Solid-form stability of acid salts stored at elevated temperature (HPLC purity); format: physicochemical; conditions: for Purity % a/a after 3 days at 80 °C (HPLC): solid form stored at 80 °C
# Description: as §1
# Stability of the acid salts were also tested by storing the salts (solid forms) at an elevated temperature of 45 and 80 °C. Table 12 Stability of Acid Addition Salts
# physchem = conditions: 42 °C, water, thermodynamic from solid
SMILES,Aqueous Solubility (Calculated) [1] [mg/mL],Starting Purity % a/a (HPLC) ([2]; before the 3 day test (time zero)) [% a/a],Purity % a/a after 3 days (HPLC) [2] [% a/a],Purity % a/a after 3 days at 45 °C (HPLC) ([3]; solid form stored at 45 °C) [% a/a],Purity % a/a after 3 days at 80 °C (HPLC) [3] [% a/a],solubility at 3 days (physchem) [mg/mL]
Cc1cnc(CNC(=O)c2c(=O)c3ccc(N4CCCN(C)CC4)nc3n3c2sc2ccccc23)cn1 [HCl],> 100,98.78,88.62,98.48,98.71,–
"Cc1cnc(CNC(=O)c2c(=O)c3ccc(N4CCCN(C)CC4)nc3n3c2sc2ccccc23)cn1 [Free Base, 2-(4-Methyl-[1,4]diazepan-1-yl)-5-oxo-5H-7-thia-1,11b-diaza-benzo[c]fluorene-6-carboxylic acid (5-methyl-pyrazin-2-ylmethyl)-amide]",–,–,99.58,–,99.67,< 100
